Data from patent US11384055B2 (BIOMARIN PHARMACEUTICAL INC., priority 2017, dated 2022).

Biological target: T1, Human GO (Homo sapiens, UniProt Q9UJM8)
T1 construct: purchased Novus Biologicals NBP1-72412
T1 sequence (Q9UJM8 1-370): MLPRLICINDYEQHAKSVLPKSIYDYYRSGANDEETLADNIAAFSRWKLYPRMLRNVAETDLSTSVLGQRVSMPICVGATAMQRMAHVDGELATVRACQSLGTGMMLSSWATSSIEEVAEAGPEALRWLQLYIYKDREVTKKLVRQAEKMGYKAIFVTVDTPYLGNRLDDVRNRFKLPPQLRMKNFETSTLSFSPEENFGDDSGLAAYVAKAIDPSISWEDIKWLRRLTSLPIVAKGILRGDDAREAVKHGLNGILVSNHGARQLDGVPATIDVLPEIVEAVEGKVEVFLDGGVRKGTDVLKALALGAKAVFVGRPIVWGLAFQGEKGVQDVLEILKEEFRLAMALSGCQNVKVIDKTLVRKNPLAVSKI
Experiment: GO enzymatic assay (coupled fluorescence/HRP assay, glycolate substrate)
Format: biochemical
Conditions: Table 2; read-out: Range (range of IC50 values calculated from the enzymatic assays)
Outline: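 Human GO incubated with glycolate substrate in 50 mM potassium phosphate, pH 7, with varying inhibitor concentrations. Activity read by coupled HRP fluorescence. IC50 taken from variable-slope sigmoidal dose-response fits of percent inhibition relative to DMSO control.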

Compound | IC50 [nM]
CC(C)N1CCCc2cc(-c3nn[nH]c3C(=O)O)ccc21 [Compound 206, 4-(1-isopropyl-1,2,3,4-tetrahydroquinolin-6-yl)-1H-1,2,3-triazole-5-carboxylic acid 2,2,2-trifluoroacetate] | 1000 to 10000
O=C(O)c1[nH]nnc1-c1cc(Cl)c(Cl)cn1 [Compound 207, 4-(4,5-dichloropyridin-2-yl)-1H-1,2,3-triazole-5-carboxylic acid] | 100 to 1000
O=C(O)c1[nH]nnc1-c1ccc(Cl)cn1 [Compound 208, 4-(5-chloropyridin-2-yl)-1H-1,2,3-triazole-5-carboxylic acid 2,2,2-trifluoroacetate] | 100 to 1000
CC(=O)NCCOc1ccc(-c2nn[nH]c2C(=O)O)cc1 [Compound 209, 4-(4-(2-acetamidoethoxy)phenyl)-1H-1,2,3-triazole-5-carboxylic acid] | 1000 to 10000
O=C(O)c1[nH]nnc1-c1cc2ccc(F)cc2cn1 [Compound 210, 4-(7-fluoroisoquinolin-3-yl)-1H-1,2,3-triazole-5-carboxylic acid 2,2,2-trifluoroacetate] | 100 to 1000
O=C(O)c1[nH]nnc1-c1cc2cc(OC(F)(F)F)ccc2cn1 [Compound 211, 4-(6-(trifluoromethoxy)isoquinolin-3-yl)-1H-1,2,3-triazole-carboxylic acid] | 1000 to 10000
O=C(O)c1[nH]nnc1-c1ccc2c(n1)CCCC2 [Compound 212, 4-(5,6,7,8-tetrahydroquinolin-2-yl)-1H-1,2,3-triazole-5-carboxylic acid] | 1000 to 10000
O=C(O)c1[nH]nnc1-c1cc2cc(F)ccc2cn1 [Compound 213, 4-(6-fluoroisoquinolin-3-yl)-1H-1,2,3-triazole-5-carboxylic acid 2,2,2-trifluoroacetate] | 1000 to 10000
O=C(O)c1[nH]nnc1-c1cc2ccc(OC(F)(F)F)cc2cn1 [Compound 214, 4-(7-(trifluoromethoxy)isoquinolin-3-yl)-1H-1,2,3-triazole-5-carboxylic acid] | 100 to 1000
O=C(O)c1[nH]nnc1-c1cc2ccc(C(F)(F)F)cc2cn1 [Compound 215, 4-(7-(trifluoromethyl)isoquinolin-3-yl)-1H-1,2,3-triazole-5-carboxylic acid] | 100 to 1000
O=C(O)c1[nH]nnc1-c1cnc2cc(Cl)ccc2c1 [Compound 216, 4-(7-chloroquinolin-3-yl)-1H-1,2,3-triazole-5-carboxylic acid 2,2,2-trifluoroacetate] | < 100
O=C(O)c1[nH]nnc1-c1cc(Cl)cc(OCC2CC2)c1 [Compound 217, 4-(3-chloro-5-(cyclopropylmethoxy)phenyl)-1H-1,2,3-triazole-5-carboxylic acid 2,2,2-trifluoroacetate] | < 100
O=C(O)c1[nH]nnc1-c1ccc(Cl)c(OCC2CC2)c1 [Compound 218, 4-(4-chloro-3-(cyclopropylmethoxy)phenyl)-1H-1,2,3-triazole-5-carboxylic acid] | 100 to 1000
O=C(O)c1[nH]nnc1-c1cc(OCC2CC2)ccc1Cl [Compound 219, 4-(2-chloro-5-(cyclopropylmethoxy)phenyl)-1H-1,2,3-triazole-5-carboxylic acid] | 1000 to 10000
CC(=O)OCOC(=O)c1[nH]nnc1Oc1ccc2cc(Cl)ccc2c1 [Compound 235, acetoxymethyl 4-((6-chloronaphthalen-2-yl)oxy)-1H-1,2,3-triazole-5-carboxylate] | < 100
CC(C)(C)OC(=O)N1CCCCC1C(=O)OCn1nnc(Oc2ccc(Cl)c(Cl)c2)c1C(=O)O (centres unmarked) [Compound 240, 1-(((1-(tert-butoxycarbonyl)piperidine-2-carbonyl)oxy)methyl)-4-(3,4-dichlorophenoxy)-1H-1,2,3-triazole-5-carboxylic acid] | 1000 to 10000

The remaining lines, values ahead:

IC50 [nM] | Compound
< 100 | O=C(O)c1[nH]nnc1Oc1ccc(-c2cccc(N3CCCCC3)c2)cc1 [Compound 220, 4-((3′-(piperidin-1-yl)-[1,1′-biphenyl]-4-yl)oxy)-1H-1,2,3-triazole-5-carboxylic acid 2,2,2-trifluoroacetate]
< 100 | O=C(O)c1[nH]nnc1Oc1ccc(-c2ccc(N3CCCCC3)cc2)cc1 [Compound 221, 4-((4′-(piperidin-1-yl)-[1,1′-biphenyl]-4-yl)oxy)-1H-1,2,3-triazole-5-carboxylic acid 2,2,2-trifluoroacetate]
< 100 | CN1CCCc2cc(-c3ccc(Oc4nn[nH]c4C(=O)O)cc3)ccc21 [Compound 222, 4-(4-(1-methyl-1,2,3,4-tetrahydroquinolin-6-yl)phenoxy)-1H-1,2,3-triazole-5-carboxylic acid]
< 100 | O=C(O)c1[nH]nnc1Oc1ccc(-c2cccc3c2CCCC3)cc1 [Compound 223, 4-(4-(5,6,7,8-tetrahydronaphthalen-1-yl)phenoxy)-1H-1,2,3-triazole-5-carboxylic acid 2,2,2-trifluoroacetate]
< 100 | O=C(O)c1[nH]nnc1Oc1ccc(-c2cccc(CN3CCCCC3=O)c2)cc1 [Compound 224, 4-((3′-((2-oxopiperidin-1-yl)methyl)-[1,1′-biphenyl]-4-yl)oxy)-1H-1,2,3-triazole-5-carboxylic acid]
< 100 | N#Cc1ccc(-c2ccc(Oc3nn[nH]c3C(=O)O)cc2)cc1 [Compound 225, 4-((4′-cyano-[1,1′-biphenyl]-4-yl)oxy)-1H-1,2,3-triazole-5-carboxylic acid]
1000 to 10000 | CC(C)N1CCc2ccc(Oc3nn[nH]c3C(=O)O)cc2C1 [Compound 226, 4-((2-isopropyl-1,2,3,4-tetrahydroisoquinolin-7-yl)oxy)-1H-1,2,3-triazole-5-carboxylic acid 2,2,2-trifluoroacetate]
< 100 | O=C(O)c1[nH]nnc1OCc1ccc2cc(Cl)ccc2c1 [Compound 227, 4-((6-chloronaphthalen-2-yl)methoxy)-1H-1,2,3-triazole-5-carboxylic acid 2,2,2-trifluoroacetate]
< 100 | O=C(O)c1[nH]nnc1Oc1ccc(-c2cccc(C3CCCCC3)c2)cc1 [Compound 228, 4-((3′-cyclohexyl-[1,1′-biphenyl]-4-yl)oxy)-1H-1,2,3-triazole-5-carboxylic acid]
100 to 1000 | O=C(O)c1c(Oc2ccc(Cl)c(Cl)c2)nnn1COC(=O)C1CCCCC1 [Compound 229, 1-(((cyclohexanecarbonyl)oxy)methyl)-4-(3,4-dichlorophenoxy)1H-1,2,3-triazole-5-carboxylic acid]
< 100 | COCCOc1cccc(-c2ccc(Oc3nn[nH]c3C(=O)O)cc2)c1 [Compound 230, 4-((3′-(2-methoxyethoxy)-[1,1′-biphenyl]-4-yl)oxy)-1H-1,2,3-triazole-5-carboxylic acid]
< 100 | O=C(O)c1[nH]nnc1Oc1ccc2c(c1)OCCO2 [Compound 231, 4-((2,3-dihydrobenzo[b][1,4]dioxin-6-yl)oxy)-1H-1,2,3-triazole-5-carboxylic acid 2,2,2-trifluoroacetate]
< 100 | O=C(O)c1[nH]nnc1Oc1ccc(-c2cccc(OCC3CC3)c2)cc1 [Compound 232, 4-((3′-(cyclopropylmethoxy)-[1,1′-biphenyl]-4-yl)oxy)-1H-1,2,3-triazole-5-carboxylic acid]
< 100 | CC(=O)N1CCN(c2cccc(-c3ccc(Oc4nn[nH]c4C(=O)O)cc3)c2)CC1 [Compound 233, 4-((3′-(4-acetylpiperazin-1-yl)-[1,1′-biphenyl]-4-yl)oxy)-1H-1,2,3-triazole-5-carboxylic acid 2,2,2-trifluoroacetate]
< 100 | COCCOc1ccc(-c2ccc(Oc3nn[nH]c3C(=O)O)cc2)cc1 [Compound 234, 4-((4′-(2-methoxyethoxy)-[1,1′-biphenyl]-4-yl)oxy)-1H-1,2,3-triazole-5-carboxylic acid]
< 100 | O=C(O)c1[nH]nnc1Oc1ccc2cc(OC(F)F)ccc2c1 [Compound 236, 4-((6-(difluoromethoxy)naphthalen-2-yl)oxy)-1H-1,2,3-triazole-5-carboxylic acid]
< 100 | O=C(O)c1[nH]nnc1OC1CCc2cc(F)c(F)cc2C1 (centres unmarked) [Compound 237, 4-((6,7-difluoro-1,2,3,4-tetrahydronaphthalen-2-yl)oxy)-1H-1,2,3-triazole-5-carboxylic acid]
< 100 | O=C(O)c1[nH]nnc1Oc1ccc(-c2cccc(C3CCOCC3)c2)cc1 [Compound 238, 4-((3′-(tetrahydro-2H-pyran-4-yl)-[1,1′-biphenyl]-4-yl)oxy)-1H-1,2,3-triazole-5-carboxylic acid 2,2,2-trifluoroacetate]
100 to 1000 | CC(C)C(=O)OCOC(=O)c1[nH]nnc1Oc1ccc2cc(Cl)ccc2c1 [Compound 239, (isobutyryloxy)methyl 4-((6-chloronaphthalen-2-yl)oxy)-1H-1,2,3-triazole-5-carboxylate]
< 100 | O=C(O)c1[nH]nnc1OC1Cc2cc(Cl)c(Cl)cc2C1 [Compound 241, 4-((5,6-dichloro-2,3-dihydro-1H-inden-2-yl)oxy)-1H-1,2,3-triazole-5-carboxylic acid 2,2,2-trifluoroacetate]
< 100 | O=C(O)c1[nH]nnc1Oc1ccc(-c2ccc(C3CCOCC3)cc2)cc1 [Compound 242, 4-((4′-(tetrahydro-2H-pyran-4-yl)-[1,1′-biphenyl]-4-yl)oxy)-1H-1,2,3-triazole-5-carboxylic acid]
< 100 | O=C(O)c1[nH]nnc1CSc1ccc(Cl)c(Cl)c1 [Compound 243, 4-(((3,4-dichlorophenyl)thio)methyl)-1H-1,2,3-triazole-5-carboxylic acid]
